Source: patent US8354539B2, “Indole derivatives as IKK2 inhibitors” (Glaxo Group Limited, priority 2009, dated 2013)

Assays:
[1] = tested on: A549 SPAP cells; test: NFkB reporter assay; format: cell-based; conditions: Homo sapiens, TNF stimulated, read-out: pIC50 potency (converted)
Method: A 70% confluent T225 flask of A549 SPAP cells was harvested by centrifugation for 5 min at 200 g, resuspended in assay buffer (DMEM supplemented with 10% FCS 2×HI, 2 mM L-Glutamine, 1% Pen/Strep and Non essential amino acids) and diluted to 0.16×10^6/ml. 60 μl of cell solution was dispensed to each well of clear Nunc 384-well plates, containing 0.5 μl compound in neat DMSO at 140× the required final assay concentration. Plates were incubated for 1h at 37° C., 95% humidity, 5% CO2 before […] of TNF solution in assay buffer was added to give a final concentration of 3.2 ng/ml and then returned to the cell incubator for 15 h. Plates were equilibrated to room temperature for 1 h prior to the addition of 25 μl of pNPP buffer (1 M Diethanolamine pH 9.8, 0.5 mM MgCl2, 0.28M NaCl, 2 mg/ml pNPP) to each well of assay plates. The plates were covered to protect the reagents from light, and then incubated at room temperature for approximately 1 hour before reading them on an Ascent using a 405 nm single filter.
All data was normalized to the mean of 16 high and 16 low control wells on each plate. A four parameter curve fit of the following form was then applied

[2] = target: T1, Recombinant human IKK1 (Homo sapiens, UniProt O15111); test: IKK1 time-resolved fluorescence resonance energy transfer assay; format: biochemical; conditions: IKK2 assay and IKK2 time dependent assay versus IKK1 TR-FRET assay
T1 construct: Recombinant human IKK1 (residues 1-785); 6HIS (C); made in house
T1 sequence (O15111 1-745): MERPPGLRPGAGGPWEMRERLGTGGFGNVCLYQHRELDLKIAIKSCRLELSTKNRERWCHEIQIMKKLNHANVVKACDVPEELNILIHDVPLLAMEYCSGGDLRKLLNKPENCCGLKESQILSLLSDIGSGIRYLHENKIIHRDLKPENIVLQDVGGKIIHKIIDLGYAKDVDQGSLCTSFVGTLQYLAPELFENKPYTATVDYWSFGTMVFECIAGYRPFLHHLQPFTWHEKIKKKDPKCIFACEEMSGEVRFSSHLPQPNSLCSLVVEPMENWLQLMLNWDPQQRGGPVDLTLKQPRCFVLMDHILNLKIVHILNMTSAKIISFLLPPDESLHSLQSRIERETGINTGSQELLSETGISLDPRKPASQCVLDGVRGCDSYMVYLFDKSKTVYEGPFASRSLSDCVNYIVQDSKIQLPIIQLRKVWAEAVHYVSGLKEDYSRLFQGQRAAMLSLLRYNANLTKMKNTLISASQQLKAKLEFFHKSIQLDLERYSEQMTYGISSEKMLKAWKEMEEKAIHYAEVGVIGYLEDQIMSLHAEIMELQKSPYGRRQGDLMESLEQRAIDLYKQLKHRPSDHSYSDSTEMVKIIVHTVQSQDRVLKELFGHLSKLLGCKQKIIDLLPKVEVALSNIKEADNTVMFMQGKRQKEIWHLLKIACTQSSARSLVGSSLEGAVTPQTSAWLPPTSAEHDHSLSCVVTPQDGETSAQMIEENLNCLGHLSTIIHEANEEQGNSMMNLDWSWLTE
Method: Recombinant human IKK1 (residues 1-785) was expressed in baculovirus as a C-terminal 6HIS-tagged fusion protein, and its activity was assessed using a time-resolved fluorescence resonance energy transfer (TR-FRET) assay. Briefly, IKK1 (typically 5-10 nM final) diluted in assay buffer (50 mM HEPES, 10 mM MgCl2, 1 mM CHAPS pH 7.4 with 1 mM DTT and 0.01% w/v BSA) was added to wells containing various concentrations of compound or DMSO vehicle (1.7% v/v final). The reaction was initiated by the addition of GST-IκBα substrate (25 nM final)/ATP (1 μM final), in a total volume of 6 μl. The reaction was incubated for 15 minutes at room temperature, then terminated by the addition of stop reagent (3 μl) containing 50 mM EDTA and detection reagents in buffer (100 mM HEPES pH 7.4, 150 mM NaCl and 0.01% w/v BSA). […] The degree of phosphorylation of GST-IκBα was measured using a suitable time-resolved fluorimeter such as Packard Discovery (Perkin-Elmer Life Sciences, Pangbourne, Berkshire, UK), Wallac Viewlux (Perkin-Elmer Life Sciences, Pangbourne, Berkshire, UK), Envision (Perkin-Elmer Life Sciences, Pangbourne, Berkshire, UK), or Rubystar (BMG, Aylesbury, Buckinghamshire, UK) as a ratio of specific 665 nm energy transfer signal to reference europium 620 nm signal.

[3] = tested on: human whole blood; test: Human whole blood assay (LPS stimulated TNFα); format: cell-based; conditions: read-out: pIC50 potency, inhibition of TNF production (converted)
Method: Heparinised blood drawn from normal volunteers was dispensed (100 μl) into microtitre plate wells containing 1.0 μl of an appropriately diluted compound solution in DMSO. After 1 hr incubation at 37° C., 5% CO2, 25 μl LPS solution (S. typhosa) in RPMI 1640 (containing 1% L-glutamine and 1% Penicillin/streptomycin) was added (50 ng/ml final). The samples were incubated at 37° C., 5% CO2 for 20 hours, 50 μls physiological saline (0.138% NaCl) was added and diluted plasma was collected using a Biomek FX liquid handling robot after centrifugation at 1300 g for 10 min. Plasma TNFα content was determined by electrochemiluminescence assay using the Mesoscale (MSD) technology.
20 μl supernatant from PBMC plates or 40 μl from whole blood plates was transferred using the Biomek FX to a 96 well High-Bind MSD assay plate precoated with anti-hTNF alpha capture antibody and containing 25 μl of MSD human serum cytokine assay diluent. […] The plates were shaken at room temperature for a further 1 hour before washing again and adding 150 μl of MSD Read Buffer T (2×). Plates were then read on the MSD Sector 6000 plate reader. For the PBMC assay, supernatant addition to the MSD plates was followed immediately by 20 μl of MSD detection antibody, the plates were then sealed and shaken for 2 hours before addition of 90 μl of MSD Read Buffer P (2.5×). Plates were read on the MSD Sector 6000. […]

IC50 [1]: < 31.6 nM
IC50 [3]: < 316 nM
Compound: COCCS(=O)(=O)N1CCC(c2c[nH]c3c(C(N)=O)cc(-c4ccc5c(c4)CN(C(C)C)C5)cc23)CC1 [Compound of formula (I), 5-[2-(1-methylethyl)-2,3-dihydro-1H-isoindol-5-yl]-3-(1-{[2-(methyloxy)ethyl]sulfonyl}-4-piperidinyl)-1H-indole-7-carboxamide]
potency at IKK2 relative to IKK1 [2]: inhibited IKK2 with greater potency than IKK1
